Test results: ChEMBL document CHEMBL4219133, “Studies on non-steroidal inhibitors of aromatase enzyme; 4-(aryl/heteroaryl)-2-(pyrimidin-2-yl)thiazole derivatives” (Bioorg Med Chem, 2018)

What was measured:
MCF7 = assay: Antiproliferative activity against human MCF7 cells assessed as cell viability at 10^-4 M after 6 hrs by MTT assay relative to control; type: functional; details: MCF7, 6 h, read-out: Activity
[1] = Antiproliferative activity against HEK293 cells assessed as cell viability at 10^-4 M after 6 hrs by MTT assay relative to control; type: cell-based; details: human, read-out: Activity
Aromatase = target: T1, Aromatase (Homo sapiens, UniProt P11511)
T1 sequence (P11511 whole entry): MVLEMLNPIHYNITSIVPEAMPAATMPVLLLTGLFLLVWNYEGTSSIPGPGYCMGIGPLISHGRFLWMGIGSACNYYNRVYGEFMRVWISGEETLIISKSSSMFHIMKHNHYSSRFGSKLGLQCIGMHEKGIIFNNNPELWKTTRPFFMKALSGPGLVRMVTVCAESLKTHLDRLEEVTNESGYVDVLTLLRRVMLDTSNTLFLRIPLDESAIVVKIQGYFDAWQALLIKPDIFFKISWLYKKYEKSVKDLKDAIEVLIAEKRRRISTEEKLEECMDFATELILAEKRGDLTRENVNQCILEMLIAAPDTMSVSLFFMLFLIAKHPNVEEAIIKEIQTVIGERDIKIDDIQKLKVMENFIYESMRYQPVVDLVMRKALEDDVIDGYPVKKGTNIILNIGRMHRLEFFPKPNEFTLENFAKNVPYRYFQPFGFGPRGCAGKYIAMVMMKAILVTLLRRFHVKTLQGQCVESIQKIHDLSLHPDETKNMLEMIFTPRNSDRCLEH
Description: Inhibition of aromatase (unknown origin)

IC50 (Aromatase)	Structure (SMILES)	viability at 100 µM (MCF7)	viability at 6 h, 100 µM [1]
	c1cnc(-c2nc(-c3cccs3)cs2)nc1	136%	77%
	c1cnc(-c2nc(-c3ccncc3)cs2)nc1	76.6%	101%
240 nM	c1cncc(-c2nsc(-c3cccnc3)n2)c1		
	Cn1c(-c2csc(-c3ncccn3)n2)nc2ccccc21	128%	102%
	Oc1ccc(-c2csc(-c3ncccn3)n2)cc1	227%	94%
	COc1cccc(-c2csc(-c3ncccn3)n2)c1	137%	95%
	COc1ccc(O)c(-c2csc(-c3ncccn3)n2)c1	208%	81.3%
	c1cnc(-c2nc(-c3ccco3)cs2)nc1	76%	59%
	c1cnc(-c2nc(-c3cc4ccccc4o3)cs2)nc1	131%	108%
> 50000 nM	c1ccc(-c2nsc(-c3ccccc3)n2)cc1		
	c1cnc(-c2nc(-c3cc4ccccc4s3)cs2)nc1	120%	83.5%
	Oc1ccccc1-c1csc(-c2ncccn2)n1	129%	131%
	Cc1ccc(O)c(-c2csc(-c3ncccn3)n2)c1	195%	91.8%
	Oc1ccc(Cl)cc1-c1csc(-c2ncccn2)n1	162%	78%
	Clc1ccc(-c2csc(-c3ncccn3)n2)cc1	146%	101%
	Clc1cccc(-c2csc(-c3ncccn3)n2)c1	86.9%	107%
	c1cnc(-c2nc(-c3nc4ccccc4s3)cs2)nc1	60.7%	117%
	COc1ccccc1-c1csc(-c2ncccn2)n1	130%	87%
	Clc1ccccc1-c1csc(-c2ncccn2)n1	125%	89.4%
	c1ccc(-c2csc(-c3ncccn3)n2)nc1	74.2%	101%
	Oc1cccc(-c2csc(-c3ncccn3)n2)c1	112%	113%
4 nM	c1cncc(-c2csc(-c3cccnc3)n2)c1		
	c1cnc(-c2nc(-c3cccnc3)cs2)nc1	75.5%	89%
	COc1ccc(-c2csc(-c3ncccn3)n2)cc1	127%	101%
